Reference: PubChem BioAssay AID1259407 (Chemical Carcinogenesis Research Information System (CCRIS), 2018)
Activity calls are given as the source filed them. The rule behind the calls is not given here.

Tested on: CCRIS mutagenicity, Ames/micronucleus/aberration tests
Assay: CCRIS mutagenicity studies
[1] = Test System: AMES SALMONELLA TYPHIMURIUM, Strain/Indicator: TA98, Metabolic Activation: NONE, Method: STANDARD PLATE
[2] = Test System: AMES SALMONELLA TYPHIMURIUM, Strain/Indicator: TA98, Metabolic Activation: RAT, LIVER, S-9, AROCLOR 1254, Method: STANDARD PLATE
[3] = Test System: AMES SALMONELLA TYPHIMURIUM, Strain/Indicator: TA100, Metabolic Activation: NONE, Method: STANDARD PLATE
[4] = Test System: AMES SALMONELLA TYPHIMURIUM, Strain/Indicator: TA100, Metabolic Activation: RAT, LIVER, S-9, AROCLOR 1254, Method: STANDARD PLATE
[5] = Test System: AMES SALMONELLA TYPHIMURIUM, Strain/Indicator: TA1535, Metabolic Activation: NONE, Method: STANDARD PLATE
[6] = Test System: AMES SALMONELLA TYPHIMURIUM, Strain/Indicator: TA1537, Metabolic Activation: NONE, Method: STANDARD PLATE
[7] = Test System: AMES SALMONELLA TYPHIMURIUM, Strain/Indicator: TA1538, Metabolic Activation: NONE, Method: STANDARD PLATE

For FC(F)(F)c1ccccc1Cl, the mutagenic call (Test System: AMES SALMONELLA TYPHIMURIUM, Strain/Indicator: TA97, Metabolic Activation: HAMSTER, LIVER, S-9, AROCLOR 1254 (10%), Method: PREINCUBATION) was “inactive; negative”, the mutagenic call (Test System: AMES SALMONELLA TYPHIMURIUM, Strain/Indicator: TA97, Metabolic Activation: HAMSTER, LIVER, S-9, AROCLOR 1254 (30%), Method: PREINCUBATION) was “inactive; negative” and the mutagenic call (Test System: AMES SALMONELLA TYPHIMURIUM, Strain/Indicator: TA97, Metabolic Activation: NONE, Method: PREINCUBATION) was “inactive; negative”. The mutagenic call (Test System: AMES SALMONELLA TYPHIMURIUM, Strain/Indicator: TA97, Metabolic Activation: RAT, LIVER, S-9, AROCLOR 1254 (10%), Method: PREINCUBATION) was “inactive; negative”, the mutagenic call (Test System: AMES SALMONELLA TYPHIMURIUM, Strain/Indicator: TA97, Metabolic Activation: RAT, LIVER, S-9, AROCLOR 1254 (30%), Method: PREINCUBATION) was “inactive; negative” and the mutagenic call (Test System: AMES SALMONELLA TYPHIMURIUM, Strain/Indicator: TA98, Metabolic Activation: HAMSTER, LIVER, S-9, AROCLOR 1254 (10%), Method: PREINCUBATION) was “inactive; negative”. For the same molecule, the mutagenic call (Test System: AMES SALMONELLA TYPHIMURIUM, Strain/Indicator: TA98, Metabolic Activation: HAMSTER, LIVER, S-9, AROCLOR 1254 (30%), Method: PREINCUBATION) was “inactive; negative”, the mutagenic call (Test System: AMES SALMONELLA TYPHIMURIUM, Strain/Indicator: TA98, Metabolic Activation: NONE, Method: PREINCUBATION) was “inactive; negative” and the mutagenic call [1] was “inactive; negative”. For the same molecule, the mutagenic call (Test System: AMES SALMONELLA TYPHIMURIUM, Strain/Indicator: TA98, Metabolic Activation: RAT, LIVER, S-9, AROCLOR 1254 (10%), Method: PREINCUBATION) was “inactive; negative”, the mutagenic call (Test System: AMES SALMONELLA TYPHIMURIUM, Strain/Indicator: TA98, Metabolic Activation: RAT, LIVER, S-9, AROCLOR 1254 (30%), Method: PREINCUBATION) was “inactive; negative” and the mutagenic call [2] was “inactive; negative”. The mutagenic call (Test System: AMES SALMONELLA TYPHIMURIUM, Strain/Indicator: TA100, Metabolic Activation: HAMSTER, LIVER, S-9, AROCLOR 1254 (10%), Method: PREINCUBATION) was “inactive; negative”, the mutagenic call (Test System: AMES SALMONELLA TYPHIMURIUM, Strain/Indicator: TA100, Metabolic Activation: HAMSTER, LIVER, S-9, AROCLOR 1254 (30%), Method: PREINCUBATION) was “inactive; negative” and the mutagenic call (Test System: AMES SALMONELLA TYPHIMURIUM, Strain/Indicator: TA100, Metabolic Activation: NONE, Method: PREINCUBATION) was “inactive; negative”. For the same molecule, the mutagenic call [3] was “inactive; negative”, the mutagenic call (Test System: AMES SALMONELLA TYPHIMURIUM, Strain/Indicator: TA100, Metabolic Activation: RAT, LIVER, S-9, AROCLOR 1254 (10%), Method: PREINCUBATION) was “inactive; negative” and the mutagenic call (Test System: AMES SALMONELLA TYPHIMURIUM, Strain/Indicator: TA100, Metabolic Activation: RAT, LIVER, S-9, AROCLOR 1254 (30%), Method: PREINCUBATION) was “inactive; negative”. For the same molecule, the mutagenic call [4] was “inactive; negative”, the mutagenic call (Test System: AMES SALMONELLA TYPHIMURIUM, Strain/Indicator: TA1535, Metabolic Activation: HAMSTER, LIVER, S-9, AROCLOR 1254 (10%), Method: PREINCUBATION) was “inactive; negative” and the mutagenic call (Test System: AMES SALMONELLA TYPHIMURIUM, Strain/Indicator: TA1535, Metabolic Activation: HAMSTER, LIVER, S-9, AROCLOR 1254 (30%), Method: PREINCUBATION) was “inactive; negative”. For the same molecule, the mutagenic call (Test System: AMES SALMONELLA TYPHIMURIUM, Strain/Indicator: TA1535, Metabolic Activation: NONE, Method: PREINCUBATION) was “inactive; negative”, the mutagenic call [5] was “inactive; negative” and the mutagenic call (Test System: AMES SALMONELLA TYPHIMURIUM, Strain/Indicator: TA1535, Metabolic Activation: RAT, LIVER, S-9, AROCLOR 1254 (10%), Method: PREINCUBATION) was “inactive; negative”. For the same molecule, the mutagenic call (Test System: AMES SALMONELLA TYPHIMURIUM, Strain/Indicator: TA1535, Metabolic Activation: RAT, LIVER, S-9, AROCLOR 1254 (30%), Method: PREINCUBATION) was “inactive; negative”, the mutagenic call (Test System: AMES SALMONELLA TYPHIMURIUM, Strain/Indicator: TA1535, Metabolic Activation: RAT, LIVER, S-9, AROCLOR 1254, Method: STANDARD PLATE) was “inactive; negative” and the mutagenic call (Test System: AMES SALMONELLA TYPHIMURIUM, Strain/Indicator: TA1537, Metabolic Activation: HAMSTER, LIVER, S-9, AROCLOR 1254 (30%), Method: PREINCUBATION) was “inactive; negative”. The mutagenic call (Test System: AMES SALMONELLA TYPHIMURIUM, Strain/Indicator: TA1537, Metabolic Activation: NONE, Method: PREINCUBATION) was “inactive; negative”, the mutagenic call [6] was “inactive; negative” and the mutagenic call (Test System: AMES SALMONELLA TYPHIMURIUM, Strain/Indicator: TA1537, Metabolic Activation: RAT, LIVER, S-9, AROCLOR 1254 (30%), Method: PREINCUBATION) was “inactive; negative”. For the same molecule, the mutagenic call (Test System: AMES SALMONELLA TYPHIMURIUM, Strain/Indicator: TA1537, Metabolic Activation: RAT, LIVER, S-9, AROCLOR 1254, Method: STANDARD PLATE) was “inactive; negative”, the mutagenic call [7] was “inactive; negative” and the mutagenic call (Test System: AMES SALMONELLA TYPHIMURIUM, Strain/Indicator: TA1538, Metabolic Activation: RAT, LIVER, S-9, AROCLOR 1254, Method: STANDARD PLATE) was “inactive; negative”.
In the case of CC(C)(C)NCC(O)c1cc(Cl)c(N)c(C(F)(F)F)c1 (configuration not stated), the mutagenic call [1] is reported as “inactive; negative”, the mutagenic call (Test System: AMES SALMONELLA TYPHIMURIUM, Strain/Indicator: TA98, Metabolic Activation: RAT, LIVER, S-9, PCB, Method: STANDARD PLATE) is reported as “inactive; negative” and the mutagenic call [3] is reported as “inactive; negative”. The mutagenic call (Test System: AMES SALMONELLA TYPHIMURIUM, Strain/Indicator: TA100, Metabolic Activation: RAT, LIVER, S-9, PCB, Method: STANDARD PLATE) was “inactive; negative”, the mutagenic call [5] was “inactive; negative” and the mutagenic call (Test System: AMES SALMONELLA TYPHIMURIUM, Strain/Indicator: TA1535, Metabolic Activation: RAT, LIVER, S-9, PCB, Method: STANDARD PLATE) was “inactive; negative”. The mutagenic call [6] was “inactive; negative”, the mutagenic call (Test System: AMES SALMONELLA TYPHIMURIUM, Strain/Indicator: TA1537, Metabolic Activation: RAT, LIVER, S-9, PCB, Method: STANDARD PLATE) was “inactive; negative” and the mutagenic call [7] was “inactive; negative”. For the same molecule, the mutagenic call (Test System: AMES SALMONELLA TYPHIMURIUM, Strain/Indicator: TA1538, Metabolic Activation: RAT, LIVER, S-9, PCB, Method: STANDARD PLATE) was “inactive; negative”.
For Cc1cnc2c(n1)c(C)c(C)c1c2nc(N)n1C, the mutagenic call [2] was “active; positive”.
In the case of O=[N+]([O-])c1cc2cccc3c4c(c5cccc1c5c23)CCCC4, the mutagenic call (Test System: AMES SALMONELLA TYPHIMURIUM, Strain/Indicator: TA98, Metabolic Activation: NONE', Method: STANDARD PLATE) is reported as “active; positive” and the mutagenic call [3] is reported as “active; positive”.
ClC(Cl)C(Cl)Cl was tested, and the mutagenic call (End Point: IN VITRO CHROMOSOMAL ABERRATIONS, Test System: CHINESE HAMSTER OVARY CELLS, Metabolic Activation: NONE) was “inactive; negative; precipitation occurred at 653 ug/ml”, the mutagenic call (End Point: IN VITRO CHROMOSOMAL ABERRATIONS, Test System: CHINESE HAMSTER OVARY CELLS, Metabolic Activation: RAT, LIVER, S-9, AROCLOR 1254) was “inactive; negative” and the mutagenic call (Test System: AMES SALMONELLA TYPHIMURIUM, Strain/Indicator: TA97, Metabolic Activation: NONE, Method: STANDARD PLATE) was “active; positive”. For the same molecule, the mutagenic call (Test System: AMES SALMONELLA TYPHIMURIUM, Strain/Indicator: TA97, Metabolic Activation: RAT, LIVER, S-9, AROCLOR 1254, Method: STANDARD PLATE) was “active; positive”, the mutagenic call [1] was “active; positive” and the mutagenic call [2] was “active; positive”. For the same molecule, the mutagenic call [3] was “active; positive”, the mutagenic call [4] was “active; positive” and the mutagenic call (Test System: AMES SALMONELLA TYPHIMURIUM, Strain/Indicator: TA104, Metabolic Activation: NONE, Method: STANDARD PLATE) was “inactive; negative”. The mutagenic call (Test System: AMES SALMONELLA TYPHIMURIUM, Strain/Indicator: TA104, Metabolic Activation: RAT, LIVER, S-9, AROCLOR 1254, Method: STANDARD PLATE) was “active; positive”, the mutagenic call (Test System: AMES SALMONELLA TYPHIMURIUM, Strain/Indicator: TA1530, Metabolic Activation: NONE, Method: SPOT) was “active; positive” and the mutagenic call (Test System: AMES SALMONELLA TYPHIMURIUM, Strain/Indicator: TA1535, Metabolic Activation: NONE, Method: SPOT) was “active; positive”.
With CNC(=O)NO the mutagenic call [1] was “inactive; negative” and the mutagenic call [3] was “inactive; negative”.
In the case of C=CCN1C2c3ccccc3-c3ccccc3C21 (configuration not stated), the mutagenic call [3] is reported as “active; positive” and the mutagenic call (Test System: CHINESE HAMSTER V-79, Strain/Indicator: V-79/6-THIOGUANINE, Metabolic Activation: NONE, Method: STANDARD PLATE) is reported as “active; positive”.
